Experimental data as given in patent US11753407B2, “Compounds for treating spinal muscular atrophy” (PTC Therapeutics, Inc., priority 2012, dated 2023).

What was measured:
[1] = test system: SMN2 mRNA in tissues of C/C-allele SMA mice; assay: SMN2 mRNA RT-qPCR splicing assay in animal tissues; assay type: in vivo; details: brain and muscle, 10 mg/kg BID oral gavage 10 days, versus vehicle (FIG. 6)
Experimental: The reverse transcription-quantitative PCR-based (RT-qPCR) assay is used to quantify the levels of the full length and Δ7 SMN2 mRNA in tissues from mice treated with test compound.
Protocol. C/C-allele SMA mice are treated by oral gavage two times per day (BID) for 10 days with test compounds re-suspended in 0.5% HPMC and 0.1% Tween-80. Tissue samples were collected and snap frozen for RNA purification.
Tissue samples (20-40 mg) are homogenized in QIAzol Lysis Reagent for 2 minutes at 20 Hz in the TissueLyser II using one stainless steel bead. After addition of chloroform, the homogenate is separated into aqueous and organic phases by centrifugation. RNA partitioned to the upper, aqueous phase is extracted and ethanol is added to provide appropriate binding conditions. The sample is then applied to the RNeasy spin column from the RNeasy Mini Kit, where total RNA binds to the membrane. The RNA is eluted in RNase-free water then stored at −20° C. and subsequently analyzed using the TaqMan RT-qPCR on the 7900HT Thermocycler. Total RNA is diluted ten fold and 2.5 μL of the diluted sample is added to the TaqMan RT-qPCR mixture.
SMN2 spliced products are identified using the following primers and probe in Table 7. Primer SMN FL Forward B (SEQ ID NO. 7) hybridizes to a nucleotide sequence in exons 7 and 8, primer SMN Δ7 Forward B (SEQ ID NO. 8) hybridizes to a nucleotide sequence in exons 6 and 8, primer SMN Reverse B (SEQ ID NO. 9) hybridizes to a nucleotide sequence in exon 8, probe SMN Probe B (SEQ ID NO. 10) hybridizes to a nucleotide sequence in exon 8. These primers and probe hybridize to nucleotide sequences common to human SMN1 and SMN2 mRNA. Since the SMA patient cells used in Example 5 contain only the SMN2 gene, RT-qPCR can quantify only SMN2 full-length and Δ7 mRNA.
The SMN forward and reverse primers are used at final concentrations of 0.4 μM. The SMN probe is used at a final concentration of 0.15 μM. The SMN-GAPDH Mix (10 μL total volume) is prepared by combining 5 μL of 2× RT-PCR buffer, 0.4 μL of 25× RT-PCR enzyme mix, 0.5 μL of 20× GAPDH primer-probe mix, 1.505 μL of water, 2.5 μL of RNA solution, 0.04 μL of 100 μM forward primer, 0.04 μL of 100 μM reverse primer, and 0.015 μL of 100 μM SMN probe. […]
The increase of SMN2 FL and decrease in SMN2 Δ7 mRNA relative to those in tissues from animals treated with vehicle control are determined from real-time PCR data using a modified ΔΔCt method (as described in Livak and Schmittgen, Methods, 2001, 25:402-8). The amplification efficiency (E) is calculated from the slope of the amplification curve for SMN2 FL, SMN2 Δ7, and GAPDH individually. The abundances of SMN2 FL, SMN2 Δ7, and GAPDH are then calculated as (1+E)^−Ct, where Ct is the threshold value for each amplicon. […]

[2] = test system: gems (Smn protein nuclear foci) in SMA patient fibroblast cells (GM03813); assay: Gems count (Smn-dependent nuclear speckle count) assay; assay type: cell-based, human; details: SMA Type 1 patient cells, 48 hours, relative to DMSO (FIG. 9)
Text: The level of Smn protein directly correlates with the amount of nuclear foci, also known as gems, produced upon staining the cell with a fluorescently labeled anti-Smn antibody (Liu and Dreyfuss, EMBO J., 1996, 15:3555). Gems are multi-protein complexes whose formation is nucleated by the Smn protein and the gems count assay is used to evaluate the level of Smn protein in the cell. As described herein, the gems count assay is used to quantify the level of Smn protein in SMA patient fibroblast cells treated with a test compound.
Protocol: Cells are thawed and incubated in DMEM-10% FBS for 72 hours, then trypsinized, counted and resuspended to 100,000 cells/mL in DMEM-10% FBS. The cell suspension (2 mL) is plated in a 6-well cell culture plate with a sterile cover slip and incubated for 3 to 5 hours. Test compounds are serially diluted 3.16-fold in 100% DMSO to generate a 7-point dilution curve. […]
Cell culture medium is aspirated from the wells containing cover slips and gently washed three times with cold PBS. […] The number of gems is counted per >150 nuclei and % activation is calculated using DMSO and 10 nM bortezomib as controls. For each test compound, the cells are examined at all wavelengths to identify test compounds with inherent fluorescence.

| Compound | SMN2 FL mRNA [1] | SMN2 Δ7 mRNA [1] | gems (nuclear speckle count) [2] |
| --- | --- | --- | --- |
| COc1ccc(-c2cc(=O)n3cc(N4CCNCC4)ccc3n2)cc1OC [Cpd 6, 2-(3,4-dimethoxyphenyl)-7-(piperazin-1-yl)-4H-pyrido[1,2-a]pyrimidin-4-one] | substantially more SMN2 FL mRNA | less SMN2 Δ7 mRNA | progressively more gems |
| Cc1cn2nc(-c3cc(=O)n4cc(N5CCN(C)CC5)ccc4n3)cc2c(C)n1 [Cpd 170, 2-(4,6-dimethylpyrazolo[1,5-a]pyrazin-2-yl)-7-(4-methylpiperazin-1-yl)-4H-pyrido[1,2-a]pyrimidin-4-one] | substantially more SMN2 FL mRNA | less SMN2 Δ7 mRNA | progressively more gems |
